What all share (assay): Kinase selectivity, DiscoverX scanMAX Kinase assay panel (% control)
What all share (assay type): binding

Experiment [1] concerns the target T1, kinases of the scanMAX Kinase assay panel (Homo sapiens, UniProt O75676).
T1 construct: purchased DiscoverX Co. (contract measurement) scanMAX Kinase assay panel
Conditions: 1 uM in DMSO. In a few lines: (§1)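 Percent of control computed as (compound − positive control)/(negative control − positive control) × 100, DMSO defining 100% and positive control 0%. Each panel kinase exposed to 1 uM compound; values under 35% taken to mean the compound acts on that kinase.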

In experiment [2] the target is T2, kinases of the scanMAX Kinase assay panel (Homo sapiens, UniProt P00519, M351T).
T2 construct: purchased DiscoverX Co. (contract measurement) scanMAX Kinase assay panel
Conditions: ABL1(M351T)-phosphorylated; 1 uM. In short, it runs like this:
as §1

Experiment [3] concerns the target T3, kinases of the scanMAX Kinase assay panel (Homo sapiens, UniProt P07333).
T3 construct: purchased DiscoverX Co. (contract measurement) scanMAX Kinase assay panel
Conditions: 1 uM. In short, it runs like this: as §1

For experiment [4], the target named is T4, kinases of the scanMAX Kinase assay panel (Homo sapiens, UniProt P15056).
T4 construct: purchased DiscoverX Co. (contract measurement) scanMAX Kinase assay panel
To be noted: BRAF; 1 uM. In short, it runs like this:
as §1

In experiment [5] the target is T5, kinases of the scanMAX Kinase assay panel (Homo sapiens, UniProt P15056, V600E).
T5 construct: purchased DiscoverX Co. (contract measurement) scanMAX Kinase assay panel
Conditions: BRAF(V600E); 1 uM. In a few lines:
as §1

In experiment [6] the target is T6, kinases of the scanMAX Kinase assay panel (Homo sapiens, UniProt P21860).
T6 construct: purchased DiscoverX Co. (contract measurement) scanMAX Kinase assay panel
To be noted: ERBB3; 1 uM. In a few lines: as §1

Experiment [7] addresses T7, kinases of the scanMAX Kinase assay panel (Homo sapiens, UniProt P23458).
T7 construct: purchased DiscoverX Co. (contract measurement) scanMAX Kinase assay panel
Conditions: 1 uM. In short, it runs like this:
as §1

Experiment [8] deals with T8, kinases of the scanMAX Kinase assay panel (Homo sapiens, UniProt P27037).
T8 construct: purchased DiscoverX Co. (contract measurement) scanMAX Kinase assay panel
To be noted: ACVR2A; 1 uM. In a few lines:
as §1

The target of experiment [9] is T9, kinases of the scanMAX Kinase assay panel (Homo sapiens, UniProt P29320).
T9 construct: purchased DiscoverX Co. (contract measurement) scanMAX Kinase assay panel
T9 sequence (P29320 21-983): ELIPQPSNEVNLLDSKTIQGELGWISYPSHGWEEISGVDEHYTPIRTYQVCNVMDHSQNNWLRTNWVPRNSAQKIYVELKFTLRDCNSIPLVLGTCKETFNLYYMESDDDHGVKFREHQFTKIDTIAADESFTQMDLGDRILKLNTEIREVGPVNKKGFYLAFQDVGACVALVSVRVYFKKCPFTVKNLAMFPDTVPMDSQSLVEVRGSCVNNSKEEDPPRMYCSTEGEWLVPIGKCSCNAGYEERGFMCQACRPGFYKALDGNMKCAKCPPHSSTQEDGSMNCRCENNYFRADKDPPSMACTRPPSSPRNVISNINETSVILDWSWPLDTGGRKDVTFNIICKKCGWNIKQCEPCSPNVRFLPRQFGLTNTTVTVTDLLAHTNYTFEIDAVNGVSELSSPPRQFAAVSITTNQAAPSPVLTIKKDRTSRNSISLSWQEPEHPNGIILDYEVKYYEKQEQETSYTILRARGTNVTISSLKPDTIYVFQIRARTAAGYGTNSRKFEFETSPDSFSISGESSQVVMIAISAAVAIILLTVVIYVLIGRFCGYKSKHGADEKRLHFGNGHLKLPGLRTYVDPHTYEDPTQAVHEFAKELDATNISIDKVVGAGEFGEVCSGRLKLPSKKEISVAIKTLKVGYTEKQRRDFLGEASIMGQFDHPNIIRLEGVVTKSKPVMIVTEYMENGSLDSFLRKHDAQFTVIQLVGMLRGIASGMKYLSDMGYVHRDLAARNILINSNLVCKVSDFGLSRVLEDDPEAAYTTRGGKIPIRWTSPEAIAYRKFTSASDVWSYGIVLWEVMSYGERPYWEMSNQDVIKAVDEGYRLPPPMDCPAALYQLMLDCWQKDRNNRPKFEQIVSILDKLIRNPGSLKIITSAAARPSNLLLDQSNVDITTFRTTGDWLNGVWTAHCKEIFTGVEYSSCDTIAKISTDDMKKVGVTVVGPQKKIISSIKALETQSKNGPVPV
To be noted: EPHA3; 1 uM. In a few lines:
as §1

Experiment [10] deals with T10, kinases of the scanMAX Kinase assay panel (Homo sapiens, UniProt P35968).
T10 construct: purchased DiscoverX Co. (contract measurement) scanMAX Kinase assay panel
To be noted: kinase VEGFR2; 1 uM in DMSO. In short, it runs like this:
as §1

Experiment [11] concerns the target T11, kinases of the scanMAX Kinase assay panel (Homo sapiens, UniProt P37023).
T11 construct: purchased DiscoverX Co. (contract measurement) scanMAX Kinase assay panel
To be noted: ACVRL1; 1 uM. In a few lines:
as §1

Experiment [12] has as its target T12, kinases of the scanMAX Kinase assay panel (Homo sapiens, UniProt P42684).
T12 construct: purchased DiscoverX Co. (contract measurement) scanMAX Kinase assay panel
Conditions: ABL2; 1 uM. In a few lines: as §1

In experiment [13] the target is T13, kinases of the scanMAX Kinase assay panel (Homo sapiens, UniProt P53671).
T13 construct: purchased DiscoverX Co. (contract measurement) scanMAX Kinase assay panel
To be noted: LIMK2; 1 uM. In short, it runs like this: as §1

Experiment [14] has as its target T14, kinases of the scanMAX Kinase assay panel (Homo sapiens, UniProt Q13557).
T14 construct: purchased DiscoverX Co. (contract measurement) scanMAX Kinase assay panel
Conditions: CAMK2D; 1 uM. In a few lines:
as §1

In experiment [15] the target is T15, kinases of the scanMAX Kinase assay panel (Homo sapiens, UniProt Q86V86).
T15 construct: purchased DiscoverX Co. (contract measurement) scanMAX Kinase assay panel
To be noted: PIM3; 1 uM. In a few lines:
as §1

In experiment [16] the target is T16, kinases of the scanMAX Kinase assay panel (Homo sapiens, UniProt Q9H2X6).
T16 construct: purchased DiscoverX Co. (contract measurement) scanMAX Kinase assay panel
To be noted: HIPK2; 1 uM. In a few lines: as §1

Experiment [17] has as its target T17, kinases of the scanMAX Kinase assay panel (Plasmodium falciparum, UniProt P62344).
T17 construct: purchased DiscoverX Co. (contract measurement) scanMAX Kinase assay panel
To be noted: PFCDPK1(P. falciparum); 1 uM. In short, it runs like this: as §1

The mark [18] stands for this setting: kinase RPS6KA4(Kin.Dom.1-N-terminal), read-out: % control, RPS6KA4(Kin.Dom.1-N-terminal).
[19] abbreviates: kinase RPS6KA4(Kin.Dom.2-C-terminal), read-out: % control, RPS6KA4(Kin.Dom.2-C-terminal).

Like-named read-outs stand apart in the source and are kept apart here.

Here are results for three compounds from patent US11208412B2 (DAEGU-GYEONGBUK MEDICAL INNOVATION FOUNDATION, priority 2017, dated 2021).

T16 sequence (Q9H2X6 whole entry): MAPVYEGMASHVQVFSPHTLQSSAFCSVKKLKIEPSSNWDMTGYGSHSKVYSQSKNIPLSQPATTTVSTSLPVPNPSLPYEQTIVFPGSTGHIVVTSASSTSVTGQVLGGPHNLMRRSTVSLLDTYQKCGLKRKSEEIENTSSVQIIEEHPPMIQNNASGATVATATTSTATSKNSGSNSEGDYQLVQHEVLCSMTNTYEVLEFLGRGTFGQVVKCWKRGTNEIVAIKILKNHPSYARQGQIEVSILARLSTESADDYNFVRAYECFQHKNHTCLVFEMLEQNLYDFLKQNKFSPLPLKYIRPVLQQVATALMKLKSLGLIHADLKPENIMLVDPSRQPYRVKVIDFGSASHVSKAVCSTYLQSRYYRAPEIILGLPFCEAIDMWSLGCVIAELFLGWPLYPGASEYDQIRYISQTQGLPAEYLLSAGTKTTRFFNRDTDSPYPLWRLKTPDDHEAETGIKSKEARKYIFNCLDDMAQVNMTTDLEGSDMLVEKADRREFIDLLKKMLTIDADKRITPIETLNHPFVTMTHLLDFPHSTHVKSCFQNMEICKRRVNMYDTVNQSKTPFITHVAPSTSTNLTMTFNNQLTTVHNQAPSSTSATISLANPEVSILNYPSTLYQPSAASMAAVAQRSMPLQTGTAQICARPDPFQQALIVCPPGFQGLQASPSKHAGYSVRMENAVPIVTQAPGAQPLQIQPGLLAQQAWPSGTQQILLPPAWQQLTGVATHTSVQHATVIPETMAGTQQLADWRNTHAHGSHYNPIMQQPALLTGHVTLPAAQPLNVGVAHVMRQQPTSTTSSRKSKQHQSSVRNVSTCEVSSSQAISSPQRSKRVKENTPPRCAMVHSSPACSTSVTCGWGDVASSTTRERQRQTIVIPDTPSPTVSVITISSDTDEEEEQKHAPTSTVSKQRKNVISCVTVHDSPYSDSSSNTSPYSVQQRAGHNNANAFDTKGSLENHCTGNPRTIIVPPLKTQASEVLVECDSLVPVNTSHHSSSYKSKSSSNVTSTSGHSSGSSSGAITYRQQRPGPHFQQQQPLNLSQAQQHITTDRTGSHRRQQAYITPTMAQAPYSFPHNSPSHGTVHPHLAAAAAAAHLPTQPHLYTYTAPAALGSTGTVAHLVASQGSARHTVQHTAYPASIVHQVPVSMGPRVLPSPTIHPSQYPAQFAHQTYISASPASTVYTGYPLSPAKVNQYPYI
T4 sequence (P15056 whole entry): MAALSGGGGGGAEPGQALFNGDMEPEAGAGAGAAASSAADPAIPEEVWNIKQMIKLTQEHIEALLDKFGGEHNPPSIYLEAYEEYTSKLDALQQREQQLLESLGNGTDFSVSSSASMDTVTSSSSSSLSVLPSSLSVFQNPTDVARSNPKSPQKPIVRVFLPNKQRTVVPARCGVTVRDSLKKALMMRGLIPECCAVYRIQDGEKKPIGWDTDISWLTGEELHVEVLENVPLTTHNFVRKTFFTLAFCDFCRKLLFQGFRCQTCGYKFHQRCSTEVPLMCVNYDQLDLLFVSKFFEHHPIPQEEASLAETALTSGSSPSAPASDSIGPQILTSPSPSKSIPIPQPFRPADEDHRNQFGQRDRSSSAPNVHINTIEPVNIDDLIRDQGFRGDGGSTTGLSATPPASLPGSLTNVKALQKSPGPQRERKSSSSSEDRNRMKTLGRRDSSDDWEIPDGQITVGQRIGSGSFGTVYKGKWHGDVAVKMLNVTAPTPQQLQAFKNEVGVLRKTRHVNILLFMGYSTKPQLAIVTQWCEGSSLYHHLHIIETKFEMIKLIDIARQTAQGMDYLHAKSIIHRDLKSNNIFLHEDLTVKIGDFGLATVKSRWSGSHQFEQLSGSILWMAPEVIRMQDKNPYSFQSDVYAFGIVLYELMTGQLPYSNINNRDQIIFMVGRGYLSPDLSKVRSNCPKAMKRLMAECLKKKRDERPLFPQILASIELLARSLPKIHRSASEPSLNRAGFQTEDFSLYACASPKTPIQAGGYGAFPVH
T7 sequence (P23458 whole entry): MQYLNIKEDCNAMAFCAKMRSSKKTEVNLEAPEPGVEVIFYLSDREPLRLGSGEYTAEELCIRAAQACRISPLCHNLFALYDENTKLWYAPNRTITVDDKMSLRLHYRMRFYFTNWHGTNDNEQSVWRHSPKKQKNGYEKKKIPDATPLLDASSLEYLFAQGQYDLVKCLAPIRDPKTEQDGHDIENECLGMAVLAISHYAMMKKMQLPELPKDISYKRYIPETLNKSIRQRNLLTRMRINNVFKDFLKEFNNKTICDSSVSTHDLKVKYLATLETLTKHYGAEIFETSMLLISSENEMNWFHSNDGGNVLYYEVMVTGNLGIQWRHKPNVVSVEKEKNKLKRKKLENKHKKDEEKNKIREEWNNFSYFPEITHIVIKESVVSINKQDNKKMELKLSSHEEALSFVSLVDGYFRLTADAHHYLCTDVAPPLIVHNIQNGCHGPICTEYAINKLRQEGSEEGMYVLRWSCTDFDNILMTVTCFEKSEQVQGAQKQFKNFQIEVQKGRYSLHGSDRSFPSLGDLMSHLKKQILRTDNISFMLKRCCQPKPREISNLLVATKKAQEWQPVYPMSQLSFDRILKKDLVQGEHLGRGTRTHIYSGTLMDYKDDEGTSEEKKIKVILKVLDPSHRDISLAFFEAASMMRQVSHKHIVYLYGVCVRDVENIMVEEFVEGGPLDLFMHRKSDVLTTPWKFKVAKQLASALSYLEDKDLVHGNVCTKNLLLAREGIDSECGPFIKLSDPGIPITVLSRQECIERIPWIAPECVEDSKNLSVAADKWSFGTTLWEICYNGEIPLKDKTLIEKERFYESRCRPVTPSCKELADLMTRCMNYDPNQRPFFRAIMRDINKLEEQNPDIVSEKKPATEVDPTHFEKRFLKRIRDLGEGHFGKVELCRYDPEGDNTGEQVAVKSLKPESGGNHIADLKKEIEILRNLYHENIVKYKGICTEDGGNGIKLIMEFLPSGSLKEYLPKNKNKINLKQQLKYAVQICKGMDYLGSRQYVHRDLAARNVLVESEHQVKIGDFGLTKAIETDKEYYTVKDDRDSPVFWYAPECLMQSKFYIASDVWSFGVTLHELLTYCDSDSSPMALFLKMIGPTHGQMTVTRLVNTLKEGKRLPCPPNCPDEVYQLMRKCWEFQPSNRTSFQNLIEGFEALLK
T17 sequence (P62344 whole entry): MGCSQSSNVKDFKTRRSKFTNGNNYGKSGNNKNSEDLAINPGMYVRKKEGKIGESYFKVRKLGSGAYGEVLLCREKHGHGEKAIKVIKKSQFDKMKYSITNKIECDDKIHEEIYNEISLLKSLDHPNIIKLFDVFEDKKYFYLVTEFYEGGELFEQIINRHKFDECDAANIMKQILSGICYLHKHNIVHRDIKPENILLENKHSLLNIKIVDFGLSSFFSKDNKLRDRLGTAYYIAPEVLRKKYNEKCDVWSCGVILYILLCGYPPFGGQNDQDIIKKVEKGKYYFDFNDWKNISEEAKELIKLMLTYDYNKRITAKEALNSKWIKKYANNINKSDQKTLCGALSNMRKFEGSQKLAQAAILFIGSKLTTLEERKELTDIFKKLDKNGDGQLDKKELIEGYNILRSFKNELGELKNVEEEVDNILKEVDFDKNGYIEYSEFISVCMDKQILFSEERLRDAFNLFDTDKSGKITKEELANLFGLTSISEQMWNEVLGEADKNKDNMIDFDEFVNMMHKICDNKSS
T10 sequence (P35968 20-1356): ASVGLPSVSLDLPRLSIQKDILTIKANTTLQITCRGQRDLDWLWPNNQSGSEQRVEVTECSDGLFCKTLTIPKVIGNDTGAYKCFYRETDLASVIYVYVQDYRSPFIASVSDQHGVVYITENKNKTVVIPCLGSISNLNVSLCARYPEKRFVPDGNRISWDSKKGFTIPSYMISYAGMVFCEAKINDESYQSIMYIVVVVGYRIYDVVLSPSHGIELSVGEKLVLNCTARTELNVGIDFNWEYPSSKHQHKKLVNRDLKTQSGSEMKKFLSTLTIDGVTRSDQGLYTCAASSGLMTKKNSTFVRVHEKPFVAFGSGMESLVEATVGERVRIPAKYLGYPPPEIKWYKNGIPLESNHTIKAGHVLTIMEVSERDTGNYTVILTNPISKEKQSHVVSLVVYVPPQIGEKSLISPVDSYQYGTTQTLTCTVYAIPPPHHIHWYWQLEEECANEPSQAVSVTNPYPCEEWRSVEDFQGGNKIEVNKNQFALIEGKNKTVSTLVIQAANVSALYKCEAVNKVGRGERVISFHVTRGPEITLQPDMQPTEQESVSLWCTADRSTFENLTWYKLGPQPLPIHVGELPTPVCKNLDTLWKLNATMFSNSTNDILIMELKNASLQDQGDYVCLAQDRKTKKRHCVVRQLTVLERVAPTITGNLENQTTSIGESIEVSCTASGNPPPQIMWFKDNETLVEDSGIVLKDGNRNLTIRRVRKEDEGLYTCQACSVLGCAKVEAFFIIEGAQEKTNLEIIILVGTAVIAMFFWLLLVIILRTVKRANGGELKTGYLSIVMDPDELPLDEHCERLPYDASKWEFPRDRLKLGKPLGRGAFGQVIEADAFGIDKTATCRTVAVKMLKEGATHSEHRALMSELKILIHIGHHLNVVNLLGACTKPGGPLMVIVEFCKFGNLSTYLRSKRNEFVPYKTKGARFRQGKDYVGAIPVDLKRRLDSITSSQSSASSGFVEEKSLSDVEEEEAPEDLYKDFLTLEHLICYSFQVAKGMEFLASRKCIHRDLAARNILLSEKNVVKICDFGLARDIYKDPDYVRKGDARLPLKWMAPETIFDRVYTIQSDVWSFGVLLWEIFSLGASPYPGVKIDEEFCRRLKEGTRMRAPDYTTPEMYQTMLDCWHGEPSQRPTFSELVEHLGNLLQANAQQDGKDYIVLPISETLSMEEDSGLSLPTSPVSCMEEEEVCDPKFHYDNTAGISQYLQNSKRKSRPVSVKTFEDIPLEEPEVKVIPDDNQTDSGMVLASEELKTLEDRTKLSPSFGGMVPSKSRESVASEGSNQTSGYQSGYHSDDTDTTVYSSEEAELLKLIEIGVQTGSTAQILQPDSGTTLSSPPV
T5 sequence (P15056 whole entry V600E): as the sequence (P15056 whole entry) above, with V600E counted along it

As to `CNc1nc(Nc2ccc(C(=O)N3CCOCC3)cc2OC)nc2[nH]cc(C#N)c12` [Example 1, 2-((2-methoxy-4-(morpholine-4-carbonyl)phenyl)amino)-4-(methylamino)-7H-pyrrolo[2,3-d]pyrimidine-5-carbonitrile], the remaining binding at 1 µM came to 92% in experiment [1] (setting [18]); 0.2% in experiment [1] (setting [19]); 62% in experiment [2]; 46% in experiment [3] (CSF1R-autoinhibited); 89% in experiment [3] (CSF1R); 69% in [4]. In addition, the remaining binding at 1 µM in experiment [5] is 95%; in experiment [6], 68%; in experiment [7] (JAK1(JH1domain-catalytic)), 92%; in experiment [7] (JAK1(JH2domain-pseudokinase)) it was 14%; in experiment [8] it was 100%; in [9], 92%. In addition, the remaining binding at 1 µM came to 63% in [10]; 88% in experiment [11]; 99% in [12]; 94% in [13]; 82% in [14]; 98% in experiment [15]. Also, the remaining binding at 1 µM is 47% in experiment [16] and 87% in experiment [17].
For the compound `CC1(Nc2nc(Nc3cnn([C@H]4CCN(C5COC5)C[C@@H]4F)c3Cl)nc3[nH]cc(C#N)c23)CC1` [Example 52, 2-((5-chloro-1-((3S,4S)-3-fluoro-1-(oxetane-3-yl)piperidine-4-yl)-1H-pyrazole-4-yl)amino)((1-methylcyclopropyl)amino)-7H-pyrrolo[2,3-d]pyrimidine-5-carbonitrile], the remaining binding at 1 µM in experiment [1] (setting [18]) worked out at 68%; in [1] (setting [19]) it was 2.2%; in experiment [2] it was 2.6%; in experiment [3] (CSF1R-autoinhibited), 0%; in experiment [3] (CSF1R) it was 0%; in experiment [4], 99%. The remaining binding at 1 µM in experiment [5] was 100%; in experiment [6], 100%; in experiment [7] (JAK1(JH1domain-catalytic)) it was 44%; in experiment [7] (JAK1(JH2domain-pseudokinase)), 0%; in [8] it was 98%; in experiment [9], 18%. Further, the remaining binding at 1 µM in [10] worked out at 3.7%; in experiment [11], 100%; in experiment [12], 34%; in experiment [13], 65%; in experiment [14], 65%; in [15], 49%. The results for the remaining binding at 1 µM in [16] and in experiment [17] were 13% and 52%, respectively.
As to `CCNc1nc(Nc2ccc(C(=O)N3CCC(N4CCOCC4)CC3)cc2OC)nc2[nH]cc(C(F)(F)F)c12` [Example 104, (4-((4-(ethylamino)-5-(trifluoromethyl)-7H-pyrrolo[2,3-d]pyrimidine-2-yl)amino)-3-methoxyphenyl)(4-morpholinopiperidine-1-yl)methanone], the remaining binding at 1 µM was 100% in [1] (setting [18]); 18% in experiment [1] (setting [19]); 100% in experiment [2]; 100% in [3] (CSF1R-autoinhibited); 88% in experiment [3] (CSF1R); 100% in [4]. Besides, the remaining binding at 1 µM stood at 100% in experiment [5]; 100% in experiment [6]; 100% in experiment [7] (JAK1(JH1domain-catalytic)); 55% in experiment [7] (JAK1(JH2domain-pseudokinase)); 100% in [8]; 92% in experiment [9]. The remaining binding at 1 µM amounted to 73% in [10]; 97% in experiment [11]; 100% in experiment [12]; 99% in experiment [13]; 66% in experiment [14]; 73% in experiment [15]. The results for the remaining binding at 1 µM in experiment [16] and in experiment [17] were 14% and 100%, respectively.
